Measurements taken from US20140242093A1, “METHODS AND COMPOSITIONS FOR MODULATING THE INNATE IMMUNE RESPONSE AND/OR MYOGENESIS IN A MAMMALIAN SUBJECT” (FRED HUTCHINSON CANCER RESEARCH CENTER, priority 2011, published 2014).

Tested on: control human primary myoblasts
Test: Expression microarray of primary myoblasts transduced with lentivirus carrying DUX4-fl, DUX4-s or GFP
Description: Primary human myoblasts were collected and cultured as previously described (Snider et al., 2010). Primary myoblasts were maintained at or below 70% confluency for proliferation. For differentiation, cells were allowed to reach 95-100% confluency in growth medium. Once confluency was reached, the cells were changed to differentiation medium (F10 media supplemented with 1% horse serum, 10 μg/mL insulin, and 10 μg/mL transferrin, penicillin/streptomycin) and maintained for 4 days. Human RD cells were grown in DMEM in 10% bovine calf serum (Hyclone) and penicillin/streptomycin. The primary myoblasts were transduced with lentivirus carrying DUX-fl, DUX4- or GFP (MOI=15).
Expression microarrays were performed on the transduced cells at 24 hours after transduction as follows. […] Samples were analyzed by Illumina Human Whole Genome microarrays. Probe intensities were corrected, normalized, and summarized by the Lumi package of Bioconductor (Du et al., 2008). Differentially expressed genes were identified by the LIMMA package of Bioconductor (Wettenhall and Smyth, 2004). Gene set enrichment analysis (GSEA) was performed using the Bioconductor GOstats package (Falcon and Gentleman, 2007).

Q: Which GTF2F1 expression fc (Refseq NM_002096.1) does the source give for “DUX4-fl: full-length DUX4 protein (SEQ ID NO:110), expressed from lentiviral or pCS2 vectors or in vitro translated” here?
A: 3.208

Q: What about the HLA-A fc (Refseq NM_002116.5) of the same substance?
A: −1.08

Q: What about the HMOX1 expression fc (Refseq NM_002133.1, cultured human skeletal muscle) of the same substance?
A: −1.924

Q: And the HOXB2 expression fc (Refseq NM_002145.3)?
A: 2.202

Q: What about the HSPA6 expression fc (Refseq NM_002155.3) of the same substance?
A: 1.994

Q: And the ID2 expression fc (Refseq NM_002166.4)?
A: 2.336

Q: And the “fc of IFNB1 (expression array)” value (Refseq NM_002176.2)?
A: −0.3894

Q: And the INSM1 expression fc (Refseq NM_002196.2)?
A: 1.801

Q: And the IRF1 expression fc (Refseq NM_002198.1, cultured human skeletal muscle)?
A: −2.643

Q: And the ISG20 expression fc (Refseq NM_002201.4, cultured human skeletal muscle)?
A: −2.94

Q: And the “fc of ITGA3 (expression array)” value (Refseq NM_002204.1)?
A: −1.041

Q: What about the “fc of JUNB (expression array)” value (Refseq NM_002229.2) of the same substance?
A: −1.063

Q: And the JUP expression fc (Refseq NM_002230.1)?
A: 3.172

Q: What about the KPNA2 expression fc (Refseq NM_002266.2) of the same substance?
A: 2.416

Q: What about the “fc of LAMC1 (expression array)” value (Refseq NM_002293.2) of the same substance?
A: −0.5108

Q: And the “fc of LSS (expression array)” value (Refseq NM_002340.3)?
A: −1.045

Q: What about the LTBR fc (Refseq NM_002342.1) of the same substance?
A: −1.155

Q: And the LUM fc (Refseq NM_002345.3)?
A: −1.126

Q: And the LY6E expression fc (Refseq NM_002346.1, cultured human skeletal muscle)?
A: −3.251

Q: And the “fc of MDM2 (expression array)” value (Refseq NM_002392.2)?
A: −0.588

Q: And the MX1 expression fc (Refseq NM_002462.2, cultured human skeletal muscle)?
A: −5.675

Q: And the MX2 expression fc (Refseq NM_002463.1, cultured human skeletal muscle)?
A: −4.066

Q: And the “fc of MYF6 (expression array)” value (Refseq NM_002469.1)?
A: −1.042

Q: What about the MYOD1 fc (Refseq NM_002478.4) of the same substance?
A: −1.113

Q: What about the NFYA expression fc (Refseq NM_002505.3) of the same substance?
A: 2.335

Q: And the OAS2 expression fc (Refseq NM_002535.2, cultured human skeletal muscle)?
A: −2.711

Q: What about the ODC1 expression fc (Refseq NM_002539.1) of the same substance?
A: 3.657

Q: What about the PDE4B fc (Refseq NM_002600.3) of the same substance?
A: −1.143

Q: What about the PFKP fc (Refseq NM_002627.3) of the same substance?
A: −1.106

Q: And the PIM1 expression fc (Refseq NM_002648.2)?
A: 2.215

Q: What about the EXOSC10 expression fc (Refseq NM_002685.2) of the same substance?
A: 1.937

Q: And the PNN expression fc (Refseq NM_002687.3)?
A: 1.949

Q: What about the PRKD1 fc (Refseq NM_002742.2) of the same substance?
A: −1.099

Q: What about the PSMB9 expression fc (Refseq NM_002800.4, cultured human skeletal muscle) of the same substance?
A: −3.137

Q: What about the PTX3 expression fc (Refseq NM_002852.2, cultured human skeletal muscle) of the same substance?
A: −2.744

Q: And the PYGB expression fc (Refseq NM_002862.3, cultured human skeletal muscle)?
A: −2.046

Q: What about the “fc of RAB13 (expression array)” value (Refseq NM_002870.2) of the same substance?
A: −1.032

Q: What about the “fc of RBMS1 (expression array)” value (Refseq NM_002897.3) of the same substance?
A: −0.6159

Q: And the “fc of RBMS2 (expression array)” value (Refseq NM_002898.2)?
A: −0.772

Q: What about the RXRA fc (Refseq NM_002957.3) of the same substance?
A: −1.132

Q: What about the CCL2 expression fc (Refseq NM_002982.3, cultured human skeletal muscle) of the same substance?
A: −2.681

Q: And the CCL5 expression fc (Refseq NM_002985.2, cultured human skeletal muscle)?
A: −2.528

Q: What about the CXCL6 expression fc (Refseq NM_002993.2, cultured human skeletal muscle) of the same substance?
A: −1.994

Q: What about the CXCL5 expression fc (Refseq NM_002994.3, cultured human skeletal muscle) of the same substance?
A: −2.469

Q: What about the SLC2A5 expression fc (Refseq NM_003039.1, cultured human skeletal muscle) of the same substance?
A: −1.958

Q: And the SLC22A4 fc (Refseq NM_003059.2)?
A: −1.134

Q: And the SNAI2 expression fc (Refseq NM_003068.3, cultured human skeletal muscle)?
A: −2.095

Q: And the “fc of SMARCD3 (expression array)” value (Refseq NM_003078.3)?
A: −1.022

Q: What about the SNRNP70 expression fc (Refseq NM_003089.4) of the same substance?
A: 1.885

Q: What about the SOX4 expression fc (Refseq NM_003107.2) of the same substance?
A: 1.809

Q: And the SPG7 fc (Refseq NM_003119.2)?
A: −1.113

Q: And the SRP19 expression fc (Refseq NM_003135.1)?
A: 1.866

Q: What about the “fc of STRN (expression array)” value (Refseq NM_003162.2) of the same substance?
A: −0.2348

Q: What about the THBS1 fc (Refseq NM_003246.2) of the same substance?
A: −1.092

Q: What about the UBA7 expression fc (Refseq NM_003335.2, cultured human skeletal muscle) of the same substance?
A: −2.561

Q: And the “fc of UGCG (expression array)” value (Refseq NM_003358.1)?
A: −0.8891

Q: And the WEE1 fc (Refseq NM_003390.2)?
A: −1.099

Q: And the WNT5A fc (Refseq NM_003392.3)?
A: −1.103

Q: What about the “fc of XPO1 (expression array)” value (Refseq NM_003400.3) of the same substance?
A: −1.04

Q: And the “fc of ZFP36 (expression array)” value (Refseq NM_003407.2)?
A: −1.044

Q: And the ZKSCAN1 fc (Refseq NM_003439.1)?
A: −1.082

Q: What about the “fc of Cxorfl2 (expression array)” value (Refseq NM_003492.1) of the same substance?
A: −1.02

Q: What about the “fc of TAGLN2 (expression array)” value (Refseq NM_003564.1) of the same substance?
A: −1.002

Q: What about the “fc of EEA1 (expression array)” value (Refseq NM_003566.2) of the same substance?
A: −0.963

Q: What about the IFITM1 expression fc (Refseq NM_003641.3, cultured human skeletal muscle) of the same substance?
A: −6.118

Q: And the “fc of VAMP8 (expression array)” value (Refseq NM_003761.2)?
A: −1.02

Q: What about the “fc of VAMP4 (expression array)” value (Refseq NM_003762.3) of the same substance?
A: −1.018

Q: What about the RNGTT expression fc (Refseq NM_003800.3) of the same substance?
A: 2.018

Q: What about the RIPK1 fc (Refseq NM_003804.3) of the same substance?
A: −1.103

Q: And the TNFSF10 fc (Refseq NM_003810.2)?
A: −1.127

Q: And the TNFRSF14 expression fc (Refseq NM_003820.2, cultured human skeletal muscle)?
A: −2.72

Q: What about the “fc of RIOK3 (expression array)” value (Refseq NM_003831.2) of the same substance?
A: −0.5229

Q: And the TNFRSF10A fc (Refseq NM_003844.2)?
A: −1.126

Q: And the PEX11B fc (Refseq NM_003846.1)?
A: −1.142

Q: And the CES2 expression fc (Refseq NM_003869.4, cultured human skeletal muscle)?
A: −2.043

Q: And the CFLAR expression fc (Refseq NM_003879.3, cultured human skeletal muscle)?
A: −1.94

Q: And the “fc of ASAP2 (expression array)” value (Refseq NM_003887.2)?
A: −1.028

Q: And the CCNA1 expression fc (Refseq NM_003914.2)?
A: 7.526

Q: What about the “fc of USP13 (expression array)” value (Refseq NM_003940.2) of the same substance?
A: −0.08799

Q: And the NPR2 fc (Refseq NM_003995.3)?
A: −1.166

Q: And the “fc of OSMR (expression array)” value (Refseq NM_003999.1)?
A: −0.7417
